According to patent publication US9487561B2, “Biologically active complex and its preparation” (HAMLET PHARMA AB, priority 2010, dated 2016):
“Also recorded” adds a separate entry of the source.

What was measured:
[1] = test system: potassium channels in A549, lung carcinoma cell lines; assay: FLUXOR potassium (K^+) channel assay, Thallium (Tl^+) indicator; format: cell-based, human; settings: HAMLET 35 μM; for effect of channel blocker on K^+ flux in response to HAMLET: carcinoma cells, 30 minutes pretreatment; for potassium channel activity (fluorescence signal): oleate 175 μM (5× the HAMLET concentration), peptides mixed with oleate and immediately added
Method: (§1) The FLUXOR™ potassium (K^+) channel assay was performed on the TECAN infinite F200 (Tecan Group, Switzerland), according to the manufacturer's instructions (Invitrogen). Briefly, this involved FLUXOR™ loading buffer (Hank's Balanced Saline Solution, (HBSS) buffered with 20 mM HEPES and pH adjusted to 7.4 with NaOH. POWERLOAD™ concentrate and water-soluble Probenecid were used respectively to enhance the dye solubility and retention, respectively. Media were removed from the cell plates manually, and 80 μL of loading buffer containing the FLUXOR™ dye mix was applied to each well. Once inside the cell, the nonfluorescent AM ester form of the FLUXOR™ dye is cleaved by endogenous esterases into a thallium-sensitive indicator. The dye was loaded for 60 minutes at room temperature and then removed with the supernatant. After washing with dye-free PBS buffer, a final volume of 80 μL assay buffer containing water-soluble probenecid was added. Cells received one of the following channel inhibitors: 3.3 μL per well of 30 mM amiloride, 3.0 μL of 32 mM BaCl2, 1.8 μL of 5.4 mM gadolinium, 3 μL 3.2 mM tetrandrine and 2.3 μL of 2.6 mM ruthenium red, and were then incubated at room temperature (23-25° C.) for 30 minutes to allow equilibration of the test compounds. Prior to injection, stimulation buffer was prepared from the chloride-free buffer and thallium reagents provided in the kit as well as HAMLET, to achieve a final added concentrations of 2 mM free Tl+ and 35 μM HAMLET after 1:5 dilution upon injection of the stimulus buffer onto cells that had been loaded with FLUXOR™ dye.
To distinguish Ca^2+ mobilization from intracellular stores from the influx of extracellular Ca^2+, EGTA was then added to the cell medium. […] K^+ fluxes across tumor cell membranes were subsequently quantified under the same experimental conditions, using the fluorophore FLUXOR™, which fluoresces after thallium has entered cells through K^+ channels.
Potassium channel activity was therefore measured in A549, lung carcinoma cell lines using an indicator, which emits fluorescence signal upon entering the cells via opened potassium channels, Thallium (Tl^+) indicator (FIG. 18).

[2] = test system: p38, HSP27, ERK1/2 in kidney and lung carcinoma cells; assay: MAPK phosphorylation (phospho-MAPK antibody arrays, Western blot); format: cell-based, human; settings: for effect of ion channel inhibitor on suppression of p-ERK1/2 phosphorylation by HAMLET / effect of ion channel inhibitor on HAMLET-induced p38 phosphorylation: lung carcinoma cells; for effect of ion channel inhibitor on HAMLET-induced p38 phosphorylation: 30 minutes pretreatment, HAMLET 21 and 35 μM, 1 hour; for phosphorylation of p38: Western blot
Source text: Equal volumes of lysates were separated by SDS-PAGE on 4-12% Bis-Tris gels (Invitrogen) and blotted onto PVDF membranes. For other Western blots, 200,000 cells were allowed to adhere overnight in a 6-well plate. After HAMLET treatment the cells were washed with PBS and lysed in M-PER lysis buffer (Pierce) containing Complete protease inhibitor cocktail and PhosSTOP phosphatase inhibitor cocktail (both from Roche). The detached cells were collected by centrifugation. The lysates were cleared by centrifugation and protein concentrations were measured using the DC Protein Assay (Bio-Rad Laboratories, Hercules, Calif.). Equal amounts of protein were separated by SDS-PAGE on 4-12% Bis-Tris gels (Invitrogen) and blotted onto PVDF membranes (GE Healthcare). Membranes were saturated with BSA (GAPDH) or nonfat dry milk (phospho-p38, p38, phospho-ERK1/2, ERK1/2) and incubated with anti-p38, anti-phospho-p38, anti-ERK1/2, anti-phospho-(Thr202/Tyr204)-p44/42 (all 1:500-1000, Cell Signaling Technology), anti-ATF6 (1:1000, IMG-273, Imgenex), anti-phospho-eIF2α (Ser51), (1:500, Cell Signaling Technology) or anti-GAPDH (1:3000-5000, Novus Biologicals) antibodies followed by horseradish peroxidase-conjugated anti-rabbit (1:1000, DakoCytomation, Glostrup, Denmark) or anti-mouse (1:40000-50000, Novus Biologicals) antibodies for staining. Bound antibodies were detected with ECL Plus Western Blotting Reagent (GE Healthcare, Little Chalfont, UK) and GelDoc equipment (Bio-Rad Laboratories, Hercules, Calif.). If required, membranes were stripped with Restore Western Blot Stripping Buffer (Pierce, Rockford, Ill.), blocked and reprobed with new antibodies. MAP kinase phosphorylation was analyzed on a Human Phospho-MAPK array (Proteome Profiler Array, R&D Systems) as per the manufacturer's instruction. Band and spot intensities were quantified using ImageJ (Abramoff et al., July 2004, Biophotonics International). Cytokine quantification (IL6, IL8, TNFα) was performed on an […] 1000 immunoassay system (Siemens Diagnostics).
P38 MAPKs are activated by dual phosphorylation on conserved threonine and tyrosine residues by MKK3/6 and when phosphorylated, a wide variety of effector proteins, including MAPKAPK2 kinases, HSP27 chaperones and ATF2 and CHOP transcription factors become active (Cuenda et al., 2007, Biochimica et Biophysica Acta 1773: 1358-1375).

[3] = test system: tumor cells; assay: ion fluxes (Ca^2+, K^+, Na^+) quantified by fluorometry; format: cell-based; settings: for effect of inhibitor on HAMLET Ca^2+ fluxes: FIG. 1B
Method: FIG. 1. […] (A, upper panels) Bright-field micrographs showing glass-adherent egg yolk vesicles before and after a 40-minute exposure to HAMLET, α-lactalbumin (HLA) or oleic acid (OA). Morphology was recorded by differential interference contrast microscopy. Scale bar […]. […] (A, lower panels) Effect of HAMLET on PMVs from lung carcinoma cells. PMVs on glass-bottom dishes were exposed to HAMLET, HLA or OA and stained with Nile red for confocal microscopy. […] As a control PMVs from healthy, differentiated cells on glass-bottom dishes were also exposed to HAMLET and stained with Nile red.
FIG. 7. Ion Fluxes. (A) Ion fluxes induced by HAMLET (35 μM) or it constituents (35 μM All-ala α-lactalbumin or 175 μM sodium oleate) were quantified by fluorometry, as described. […] (B) The global transcriptional response to HAMLET was studied by microarray and the top 3000 genes by variance visualized in a Heatmap. […] Darker bands=high expression, lighter bands=low.
as §1

[4] = test system: A549 lung carcinoma cells; assay: cell death assay (trypan blue exclusion, ATP levels); format: cell-based, human; settings: 24 hours, control cells without inhibitor or pretreated with inhibitor
[5] = 35 μM All-ala α-lactalbumin or 175 μM sodium oleate, FIG. 7A

Molecule	effect of channel blocker on K^+ flux in response to HAMLET [1]	effect of ion channel inhibitor on suppression of p-ERK1/2 phosphorylation by HAMLET [2]	effect of ion channel inhibitor on HAMLET-induced p38 phosphorylation [2]	effect of inhibitor on HAMLET Ca^2+ fluxes [3]	cells died after HAMLET [4] [%]	potassium channel activity (fluorescence signal) [1]	phosphorylation of p38 [2]	K^+ fluxes [3, 5]	Na^+ or Ca^2+ fluxes [3, 5]	ERK1/2 phosphorylation ([2]; 30 minutes)	p38α and HSP27 phosphorylation ([2]; 30 minutes, phospho-MAPK antibody arrays)
[Ba+2].[Cl-].[Cl-] [BaCl2, barium chloride]	intermediate inhibition	reversed	inhibited	inhibited	13	–	–	–	–	–	–
NC(N)=NC(=O)c1nc(Cl)c(N)nc1N [amiloride, 3,5-diamino-6-chloro-N-(diaminomethylene)pyrazine-2-carboxamide]	intermediate inhibition	reversed	inhibited	inhibited	8	–	–	–	–	–	–
CCCCCCCC/C=C\CCCCCCCC(=O)[O-].[Na+] [oleate, sodium oleate]	–	–	–	–	–	potassium channels were activated by oleate alone, but at lower efficiency than HAMLET	phosphorylation of p38	triggered K^+ fluxes	low	–	–
HAMLET (protein, UniProt P00709 20-142, looked up, oleic acid complex) Alpha-lactalbumin: KQFTKCELSQLLKDIDGYGGIALPELICTMFHTSGYDTQAIVENNESTEYGLFQISNKLWCKSSQVPQSRNICDISCDKFLDDDITDDIMCAKKILDIKGIDYWLAHKALCTEKLEQWLCEKL	–	–	–	–	44	rapidly opened the K^+ channels; also recorded: triggers a rapid potassium flux	dose- and time-dependent	–	–	loss of ERK1/2 phosphorylation	phosphorylating p38α and HSP27
